# According to patent US12023333B2, “Phenyl-sulfamoyl.benzoyc acids as ERAP1 modulators” (GREY WOLF THERAPEUTICS LIMITED, priority 2019, dated 2024):
# Molecular target: T1, Purified ERAP1(37-941)-10His (ERAP1) (Homo sapiens, UniProt Q9NZ08)
# T1 construct: Purified ERAP1(37-941)-10His (ERAP1); 10His (C)
# Test: ERAP1 mediated hydrolysis of an amide substrate measured in a biochemical system (10-mer decapeptide substrate)
# Conditions: 10-mer substrate, 23° C. for 1 h, excitation 279 nm and emission 355 nm; read-out: IC50 vs Decapeptide WRVYEKC(Dnp)ALK-acid (where Dnp is Dinitrophenyl maleimide) (10-mer)
# Procedure: Biological Assay 1: ERAP1 Mediated Hydrolysis of an Amide Substrate Measured in a Biochemical System
# 1× Assay buffer (AB): 25 mM Bis-tris propane, 0.05% w/v Hydroxypropylmethylcellulose pH 7.75 made with Optima grade water
# Decapeptide WRVYEKC(Dnp)ALK-acid (where Dnp is Dinitrophenyl maleimide) (10-mer) L-Leucine 7-amido-4-methylcoumarin (L-AMC)
# 12.5 μL ERAP1 enzyme in 1×AB was combined with 250 nL test compound in DMSO. 12.5 μL of either 240 μM L-AMC in 1×AB or 100 μM 10-mer in 1×AB was added to the reaction and incubated at 23° C. for 1 h. For detection, plates were read at excitation 365 nm and emission 442 nm (L-AMC) or excitation 279 nm and emission 355 nm (10-mer). Compound IC50 was determined using a 4 parameter equation.
# T1 sequence (Q9NZ08 37-941): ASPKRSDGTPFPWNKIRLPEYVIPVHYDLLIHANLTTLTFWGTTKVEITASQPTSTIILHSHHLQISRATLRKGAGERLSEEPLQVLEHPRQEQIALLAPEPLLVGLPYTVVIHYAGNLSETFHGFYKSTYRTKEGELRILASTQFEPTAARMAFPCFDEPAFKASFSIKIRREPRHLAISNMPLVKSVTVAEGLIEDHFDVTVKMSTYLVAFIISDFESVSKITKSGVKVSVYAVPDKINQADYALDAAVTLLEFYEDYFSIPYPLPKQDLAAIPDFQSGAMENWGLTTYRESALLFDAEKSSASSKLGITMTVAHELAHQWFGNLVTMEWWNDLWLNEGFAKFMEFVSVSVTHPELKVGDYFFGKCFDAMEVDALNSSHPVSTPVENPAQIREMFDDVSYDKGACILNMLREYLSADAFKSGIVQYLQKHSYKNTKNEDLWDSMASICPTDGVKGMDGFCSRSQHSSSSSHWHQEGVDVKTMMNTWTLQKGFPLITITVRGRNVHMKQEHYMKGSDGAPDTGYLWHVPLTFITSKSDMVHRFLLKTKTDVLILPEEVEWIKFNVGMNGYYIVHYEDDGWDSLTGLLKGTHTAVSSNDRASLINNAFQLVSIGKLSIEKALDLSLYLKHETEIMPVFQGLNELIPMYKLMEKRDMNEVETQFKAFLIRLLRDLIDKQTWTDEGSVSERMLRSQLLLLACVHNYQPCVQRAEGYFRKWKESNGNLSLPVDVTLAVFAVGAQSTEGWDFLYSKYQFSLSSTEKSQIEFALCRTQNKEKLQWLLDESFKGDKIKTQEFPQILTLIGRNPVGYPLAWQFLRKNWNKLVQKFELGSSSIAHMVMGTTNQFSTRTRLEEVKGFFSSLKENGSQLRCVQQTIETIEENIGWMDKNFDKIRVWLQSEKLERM
row,Compound,IC50
1,"CCc1ccc(C(=O)O)cc1S(=O)(=O)Nc1cc(C(N)=O)ccc1-c1ccccn1 [Example 104, 3-(N-(5-carbamoyl-2-(pyridin-2-yl)phenyl)sulfamoyl)-4-ethylbenzoic acid]",< 500 nM
2,"N#Cc1cc(NS(=O)(=O)c2cc(C(=O)O)ccc2C2CC2)c(-c2ccc(Cl)s2)cc1Cl [Example 134, 3-(N-(4-chloro-2-(5-chlorothiophen-2-yl)-5-cyanophenyl)sulfamoyl)-4-cyclopropylbenzoic acid]",< 500 nM
3,"COc1ccc(C(=O)O)cc1S(=O)(=O)Nc1cc(C(F)(F)F)ccc1-c1ccccc1 [Example 1, 4-methoxy-3-(N-(4-(trifluoromethyl)-[1,1′-biphenyl]-2-yl)sulfamoyl)benzoic acid]",< 500 nM
4,"CCc1ccc(C(=O)O)cc1S(=O)(=O)Nc1cc(S(C)(=O)=O)ccc1-c1ccc(Cl)s1 [Example 89, 3-(N-(2-(5-chlorothiophen-2-yl)-5-(methylsulfonyl)phenyl)sulfamoyl)-4-ethylbenzoic acid]",< 500 nM
5,"Cn1nccc1-c1cc(NS(=O)(=O)c2cc(C(=O)O)ccc2C2CC2)c(-c2ccccn2)cc1F [Example 185, 4-cyclopropyl-3-(N-(4-fluoro-5-(1-methylpyrazol-5-yl)-2-(pyridin-2-yl)phenyl)sulfamoyl)benzoic acid]",< 500 nM
6,"COc1ccc(C(=O)O)cc1S(=O)(=O)Nc1cc(C(F)(F)F)ccc1-c1cccc(Cl)c1 [Example 46, 3-(N-(3′-chloro-4-(trifluoromethyl)-[1,1′-biphenyl]-2-yl)sulfamoyl)-4-methoxybenzoic acid]",< 500 nM
7,"O=C(O)c1ccc(C2CC2)c(S(=O)(=O)Nc2cc(C(F)(F)F)c(F)cc2-n2cccc2)c1 [Example 155, 4-cyclopropyl-3-(N-(4-fluoro-2-(pyrrol-1-yl)-5-(trifluoromethyl)phenyl)sulfamoyl)benzoic acid]",< 500 nM
8,"COc1ccc(C(=O)O)cc1S(=O)(=O)Nc1cc(C(F)(F)F)ccc1-c1ccccc1Cl [Example 10, 3-(N-(2′-chloro-4-(trifluoromethyl)-[1,1′-biphenyl]-2-yl)sulfamoyl)-4-methoxybenzoic acid]",< 5000 nM
9,"CCc1ccc(C(=O)O)cc1S(=O)(=O)Nc1cc(S(C)(=O)=O)ccc1-c1ccc(C#N)s1 [Example 120, 3-(N-(2-(5-cyanothiophen-2-yl)-5-(methylsulfonyl)phenyl)sulfamoyl)-4-ethylbenzoic acid]",< 500 nM
10,"CCc1ccc(C(=O)O)cc1S(=O)(=O)Nc1cc(C(F)(F)F)ccc1-c1ccc(OC)s1 [Example 59, 4-ethyl-3-(N-(2-(5-methoxythiophen-2-yl)-5-(trifluoromethyl)phenyl)sulfamoyl)benzoic acid]",< 500 nM
11,"Cn1ncnc1-c1cc(NS(=O)(=O)c2cc(C(=O)O)ccc2C2CC2)c(-c2ccccn2)cc1Cl [Example 189, 3-(N-(4-chloro-5-(1-methyl-1,2,4-triazol-5-yl)-2-(pyridin-2-yl)phenyl)sulfamoyl)-4-cyclopropylbenzoic acid]",< 500 nM
12,"CCc1ccc(C(=O)O)cc1S(=O)(=O)Nc1cc(S(C)(=O)=O)ccc1-c1ccc(C)s1 [Example 84, 4-ethyl-3-(N-(5-(methylsulfonyl)-2-(5-methylthiophen-2-yl)phenyl)sulfamoyl) benzoic acid]",< 500 nM
13,"COc1ccc(C(=O)O)cc1S(=O)(=O)Nc1cc(C#N)ccc1-c1ccc(F)s1 [Example 100, 3-(N-(5-cyano-2-(5-fluorothiophen-2-yl)phenyl)sulfamoyl)-4-methoxybenzoic acid]",< 500 nM
14,"CS(=O)(=O)c1ccc(-c2ccc(C3CC3)s2)c(NS(=O)(=O)c2cc(C(=O)O)ccc2C2CC2)c1 [Example 115, 4-cyclopropyl-3-(N-(2-(5-cyclopropylthiophen-2-yl)-5-(methylsulfonyl)phenyl)sulfamoyl)benzoic acid]",< 500 nM
15,"COc1ccc(C(=O)O)cc1S(=O)(=O)Nc1cc(-c2nnn[nH]2)ccc1-c1cccc(F)c1 [Example 64, 3-(N-(3′-fluoro-4-(tetrazol-5-yl)-[1,1′-biphenyl]-2-yl)sulfamoyl)-4-methoxybenzoic acid]",< 500 nM
